Structures can show the parent of a compound that is named as a salt. Where two headings read alike, the source gives them in different places.
How the values were obtained:
sc Lewis lung carcinoma = format: in vivo, mouse; details: mouse, in vivo, sc
Source text: (§1) The inoculum varies with the tumor.

[1] = test system: sc colon adenocarcinoma 51; format: in vivo, mouse; details: for Tumor growth inhibition (TGI) / Mice without Palpable Tumors: sc Colon 51
Source text: as §1

[2] = test system: sc Madison lung carcinoma; experiment: sc-implanted Madison lung carcinoma in mice; format: in vivo, mouse
Source text: as §1

[3] = test system: eight cultured human colon tumor cell lines; experiment: Cytotoxicity in series of eight cultured human colon tumor cell lines; format: cell-based
Description: For a brief exposure (2 hours) to the drug, the 50 percent inhibitory concentration ranged from 0.12-2.1 μg/ml.
The cell lines are used and maintained as monolayer cultures in Minimal Essential Media (Grand Island Biological Co., Grand Island, N.Y.) supplemented with 10% fetal calf serum in a 5% CO2 humidified incubator at 37° C. Various concentrations of a Formula (I) compound under sterile conditions were allowed to react for 2 hours followed by aspiration of medium or were exposed continuously. Plates are incubated for 7 days at 37° C. in a CO2 incubator. Medium was aspirated and cells were fixed and stained with ethanol and Geisma stain. The surviving cell population was determined by scanning the plates with an image analyzer. The percent inhibition of proliferation was determined relative to cells incubated in the absence of drug and the 50 percent inhibitory concentration (IC50) was determined by interpolation.

in vivo = details: mouse, ip
Description: For in vivo studies L1210 cells were implanted i.p. (10^6 per mouse)
and drugs were administered i.p. on Days 1 and 5. Increase in lifespan
(ILS) was based on median survival time of groups of 6 mice treated at th
maximally tolerated dose of the drugs.

[4] = test system: sc colon adenocarcinoma 38
Description: Inhibition of tumor growth (TGI) is based on mean tumor volume of groups of 7 or 8 mice relative to untreated controls. Tumors were measured between Days 12 and 19 (except Day 24 for Colon 51 and Day 31 for Colon 38).
Tumors used in these studies are maintained by serial transplantation in syngeneic strains of mice C57BL/6 for Lewis lung carcinoma, B16 melanoma and its F10 subline, M5076 sarcoma and colon adenocarcinoma 38; BALB/c for colon carcinoma 26, ADJ-PC6 plasmacytoma Madison lung carcinoma and colon adenocarcinoma 51, C3H for mammary adenocarcinoma 16/c. With the exception of the M5076 sarcoma, which is maintained as a i.p ascites cell suspension, all of the tumors were serially transplanted as s.c. solid tumors.
For therapeutic trials, tumors were aseptically removed from donor mice and prepared for implantation s.c. into test animals. The test animals for Lewis lung carcinoma, B16 melanoma and its F10 subline, M5076 sarcoma and colon adenocarcinoma 38 are syngeneic female F1 hybrid B6D2F mice (C57B1/6×DBA/2). ADJ-PC6 plasmacytoma and colon carcinoma 26 are evaluated in female BALB/c mice. Madison lung carcinoma and colon adenocarcinoma 51 are evaluated in syngeneic female F1 hybrid CD2F1 mice (BALB/c×DBA/2). Mammary adenocarcinoma 16/c is evaluated in female C3H mice. The inoculum varies with the tumor. Colon adenocarcinomas 38 is implanted as 2 mm fragments by trochar. M5076 sarcoma and ADJ-PC6 plasmacytoma are implanted as cell suspensions at 5×10^6 and 2×10^6 cells per mouse, respectively. Colon carcinoma 26, colon adenocarcinoma 51, Lewis lung carcinoma, Madison lung carcinoma and B16 melanoma and its F10 subline are implanted as tumor breis prepared as described above in a volume of 0.5 ml. The brei concentration was 10 percent (w:v) except for colon carcinoma 26 for which the brei concentration was 5 percent (w:v). After tumor inoculation, mice are randomized to treatment groups of 7 or 8 mice. In each experiment, there are three groups of untreated control mice.
Drugs are dissolved or suspended in appropriate aqueous vehicles and given by a variety of routes of administration and treatment schedules over a range of dosage levels. Animals are housed in shoebox cages and are monitored daily for mortality. […] Time for tumor measurement is dependent on the different rates of tumor growth of the different tumors: the most rapidly growing tumors such as the Lewis and Madison lung tumors, B16 melanoma and its F10 subline were measured between Days 12 and 16. The slower growing tumors were measured at later time points--17 days for M5076 sarcoma, 16 or 19 days for mammary adenocarcinoma 16/c, 19 days for ADJ-PC6 plasmacytoma and colon carcinoma 26, 24 days for colon adenocarcinoma 51, and 31 days for colon adenocarcinoma 38.
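Throughout, for MTD: each mouse received 10^6 L1210 cells intraperitoneally, with drug treatment also given by the i.p. route.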

CC[C@@]1(O)C(=O)OCc2c1cc1n(c2=O)Cc2cc3c(CN(C)C)c(O)ccc3nc2-1 [Compound No. 1S, (20 S) 9-Dimethylaminomethyl-10-hydroxycamptothecin Acetate Salt]
Increase in Lifespan (ILS) or Inhibition of Tumor Growth (TGI) (sc Lewis lung carcinoma): Curative
Tumor growth inhibition (TGI) ([1]; G/ip (Days 3, 10, 17 and 24), 3.1 mg/kg/injection): 34%
Tumor growth inhibition (TGI) ([1]; G/ip (Days 3, 10, 17 and 24), 5.2 mg/kg/injection): 36%
Tumor growth inhibition (TGI) ([1]; G/ip (Days 3, 10, 17 and 24), 8.6 mg/kg/injection): 53%
Tumor growth inhibition (TGI) ([1]; G/ip (Days 3, 10, 17 and 24), 14 mg/kg/injection): 76%
Tumor growth inhibition (TGI) ([1]; G/ip (Days 3, 10, 17 and 24), 24 mg/kg/injection): 88%
Mice without Palpable Tumors ([1]; G/ip, 8.6 mg/kg/injection): 1/8
Mice without Palpable Tumors ([1]; G/ip, 14 mg/kg/injection): 1/8
Mice without Palpable Tumors ([1]; G/ip, 24 mg/kg/injection): 3/8
Tumor growth inhibition (TGI) ([1]; H/ip (every 3 hours x4 on Days 3, 10, 14 and 24), 0.47 mg/kg/injection): 37%
Tumor growth inhibition (TGI) ([1]; H/ip (every 3 hours x4 on Days 3, 10, 14 and 24), 0.78 mg/kg/injection): 73%
Tumor growth inhibition (TGI) ([1]; H/ip (every 3 hours x4 on Days 3, 10, 14 and 24), 1.3 mg/kg/injection): 88%
Tumor growth inhibition (TGI) ([1]; H/ip (every 3 hours x4 on Days 3, 10, 14 and 24), 2.2 mg/kg/injection): 89%
Tumor growth inhibition (TGI) ([1]; H/ip (every 3 hours x4 on Days 3, 10, 14 and 24), 3.6 mg/kg/injection): 92%
Mice without Palpable Tumors ([1]; H/ip, 0.78 mg/kg/injection): 1/8
Mice without Palpable Tumors ([1]; H/ip, 1.3 mg/kg/injection): 3/8
Mice without Palpable Tumors ([1]; H/ip, 2.2 mg/kg/injection): 4/8
Mice without Palpable Tumors ([1]; H/ip, 3.6 mg/kg/injection): 4/8
Increase in Lifespan (ILS) or Inhibition of Tumor Growth (TGI) ([1]; sc Colon Adenocarcinoma 51, optimal doses and optimal schedules): 92 % TGI
TGI at the maximally tolerated dose ([2]; mouse, in vivo): 74
Tumor growth inhibition (TGI) ([2]; mouse, in vivo, 1.5 mg/kg): 0%
Tumor growth inhibition (TGI) ([2]; mouse, in vivo, 3 mg/kg): 0%
Tumor growth inhibition (TGI) ([2]; mouse, in vivo, 6 mg/kg): 21%
Tumor growth inhibition (TGI) ([2]; mouse, in vivo, 12 mg/kg): 0%
Mice without Palpable Tumors ([2]; mouse, in vivo, 24 mg/kg): 1/8
Increase in Lifespan (ILS) or Inhibition of Tumor Growth (TGI) ([2]; mouse, in vivo, sc): 85 % TGI
inhibition of tumor growth at the maximally tolerated dose ([2]; mouse, in vivo, sc): > 70
Tumor growth inhibition (TGI) ([2]; sc Madison lung, C/iv (every 3 hours x4 on Days 1, 5 and 9), 0.19 mg/kg/injection): 0%
Tumor growth inhibition (TGI) ([2]; sc Madison lung, C/iv (every 3 hours x4 on Days 1, 5 and 9), 0.38 mg/kg/injection): 41%
Tumor growth inhibition (TGI) ([2]; sc Madison lung, C/iv (every 3 hours x4 on Days 1, 5 and 9), 0.75 mg/kg/injection): 63%
Tumor growth inhibition (TGI) ([2]; sc Madison lung, C/iv (every 3 hours x4 on Days 1, 5 and 9), 1.5 mg/kg/injection): 85%
Tumor growth inhibition (TGI) ([2]; sc Madison lung, C/iv (every 3 hours x4 on Days 1, 5 and 9), 3 mg/kg/injection): toxic
Mice without Palpable Tumors ([2]; sc Madison lung, C/iv, 0.75 mg/kg/injection): 1/8
Mice without Palpable Tumors ([2]; sc Madison lung, C/iv, 1.5 mg/kg/injection): 3/8
IC50 ([3]; 168 h, drug left in medium for full 7-day period, read-out: IC50 values, range over eight lines): 0.0039 to 0.075 µg/mL
IC50 ([3]; brief exposure (2 hours), read-out: 50 percent inhibitory concentration, range over eight lines): 0.12 to 2.1 µg/mL
MTD (in vivo): 15 mg/kg
inhibition at two dose levels ([4]; mouse, in vivo): > 90
Mice without Palpable Tumors ([4]; mouse, in vivo, 0.78 mg/kg): 2/7
Mice without Palpable Tumors ([4]; mouse, in vivo, 1.3 mg/kg): 4/7
Mice without Palpable Tumors ([4]; mouse, in vivo, 2.2 mg/kg): 4/7
Mice without Palpable Tumors ([4]; mouse, in vivo, 3.6 mg/kg): 6/7
Mice without Palpable Tumors ([4]; mouse, in vivo, 6 mg/kg): 5/7
Increase in Lifespan (ILS) or Inhibition of Tumor Growth (TGI) ([4]; mouse, in vivo, sc): 96 % TGI
Tumor growth inhibition (TGI) ([4]; sc Colon 38, G/ip (Days 3, 10, 17 and 24), 3.1 mg/kg/injection): 0%
Tumor growth inhibition (TGI) ([4]; sc Colon 38, G/ip (Days 3, 10, 17 and 24), 5.2 mg/kg/injection): 0%
Tumor growth inhibition (TGI) ([4]; sc Colon 38, G/ip (Days 3, 10, 17 and 24), 8.6 mg/kg/injection): 55%
Tumor growth inhibition (TGI) ([4]; sc Colon 38, G/ip (Days 3, 10, 17 and 24), 14 mg/kg/injection): 78%
Tumor growth inhibition (TGI) ([4]; sc Colon 38, G/ip (Days 3, 10, 17 and 24), 24 mg/kg/injection): 89%
Mice without Palpable Tumors ([4]; sc Colon 38, G/ip, 3.1 mg/kg/injection): 2/7
Mice without Palpable Tumors ([4]; sc Colon 38, G/ip, 5.2 mg/kg/injection): 1/7
Mice without Palpable Tumors ([4]; sc Colon 38, G/ip, 8.6 mg/kg/injection): 3/7
Mice without Palpable Tumors ([4]; sc Colon 38, G/ip, 14 mg/kg/injection): 5/8
Mice without Palpable Tumors ([4]; sc Colon 38, G/ip, 24 mg/kg/injection): 4/7
Tumor growth inhibition (TGI) ([4]; sc Colon 38, H/ip (every 3 hours x4 on Days 3, 10, 14 and 24), 0.78 mg/kg/injection): 53%
Tumor growth inhibition (TGI) ([4]; sc Colon 38, H/ip (every 3 hours x4 on Days 3, 10, 14 and 24), 1.3 mg/kg/injection): 68%
Tumor growth inhibition (TGI) ([4]; sc Colon 38, H/ip (every 3 hours x4 on Days 3, 10, 14 and 24), 2.2 mg/kg/injection): 74%
Tumor growth inhibition (TGI) ([4]; sc Colon 38, H/ip (every 3 hours x4 on Days 3, 10, 14 and 24), 3.6 mg/kg/injection): 93%
Tumor growth inhibition (TGI) ([4]; sc Colon 38, H/ip (every 3 hours x4 on Days 3, 10, 14 and 24), 6 mg/kg/injection): 96%
